Test [1] concerns NCU05924 (endoxylanase, gh10-1). Nature of the test: mRNA sequencing (RNA-Seq), transcript abundance of gh10-1. The note with it: Δ3βG mutant; 4 hours after transfer to 0.2% cellobiose. Type of test: cell-based, Neurospora crassa. The method, then: (§1) Conidia from strains were inoculated at an OD595 equal to 0.05 in 50 ml Vogel's salts (45) with 2% w/v sucrose in a 250 ml Erlenmeyer flask and grown under constant light at 200 rpm for 16 hours. Biomass was then spun at 4200 rpm for 10 minutes and washed in Vogel's salts twice to remove any excess sucrose. Biomass was then added to a new flask containing 50 ml Vogel's salts supplemented with 1% w/v sucrose, 0.2% w/v cellobiose (Sigma) or 1% w/v Avicel® PH 101 (Sigma). Cultures were induced for 4 hrs under constant light at 200 rpm. The culture biomass was then harvested by filtration over a Whatman glass microfiber filter (GF/F) on a Buchner funnel and washed with 50 ml Vogel's salts. The biomass was flash frozen in liquid nitrogen and stored at −80° C. Three independent biological duplicates (flasks) were evaluated for each time point.
(§2) Total RNA from frozen samples was isolated using Zirconia/Silica beads (0.5 mm diameter; Biospec) and a Mini-Beadbeater-96 (Biospec) with 1 mL TRIzol reagent (Invitrogen) according to the manufacturer's instructions. […]
(§3) mRNA sequencing was performed using an Illumina kit (RS-100-0801) with isolated RNA. The final cDNA library was quantified by an Agilent bioanalyzer 2000 and sequenced using an Illumina Genome Analyzer-II using standard Illumina operating procedures. […]

In test [2] the test system is NCU07760 (gh61-2). Nature of the test: mRNA sequencing (RNA-Seq), transcript abundance of gh61-2. Type of test: cell-based, Neurospora crassa. The settings on record: Δ3βG mutant; 4 hours after transfer to 0.2% cellobiose. The protocol:
as §1, §2, §3

Test [3] concerns cellobiohydrolase I (cbh-1, NCU07340). The test is described as follows: Quantitative RT-PCR of cbh-1 expression after 4 h induction with a carbon source. It counts as cell-based, Neurospora crassa. The method, then: (§4) Strains were inoculated at an OD595 equal to 0.05 in 50 ml Vogel's salts with 2% (wt/vol) sucrose in a 250 ml Erlenmeyer flask and grown under constant light at 200 rpm for 16 hours. The biomass was then spun at 4000 rpm for 10 minutes and washed in Vogel's twice to remove any excess sucrose. The biomass was then added to a new 50 ml culture with 2% (wt/vol) sucrose, cellobiose (Sigma) or Avicel® PH 101 (Avicel®). Cultures were induced for 4 hours under constant light at 200 rpm. The culture biomass was then harvested by filtration over a Whatman glass microfiber filter (GF/F) on a Buchner funnel and washed with 50 ml Vogel's, biomass was flash frozen in liquid Nitrogen and stored at −80° C.
(§5) Total RNA from frozen samples was isolated using Zirconia/Silica beads (0.2 g, 0.5 mm diameter; Biospec) and a Mini-Beadbeater-96 (Biospec) with 1 mL TRIzol reagent (Invitrogen) according to manufacturer's instructions. Total RNA was further purified by digestion with TURBO DNA-free (Ambion) and an RNeasy kit (Qiagen). RNA integrity was checked by Nanodrop and agarose gel electrophoresis.
(§6) Quantitative RT-PCR was performed using the EXPRESS One-Step SYBR GreenER Kit (Invitrogen) and the StepOnePlus Real-Time PCR System (Applied Biosystems). Reactions were performed in triplicate with a total reaction volume of 10 ul including 300 nM each forward and reverse primers and 75 ng template RNA. Data Analysis was performed by the StepOne Software (Applied Biosystems) using Relative Quantitation/Comparative CT (ΔΔCT). Data was normalized to the endogenous control actin with expression on sucrose as the reference sample. Error bars indicate a 95% confidence interval. The RT-PCR primers were used as described in (Tian et al., 2009).
as §1, with “The biomass was flash frozen in liquid nitrogen and stored at −80° C.” left out, “point. […]” for “point.”
(§7) Quantitative RT-PCR was performed using the EXPRESS One-Step SYBR GreenER Kit (Invitrogen) and the StepOnePlus Real-Time PCR System (Applied Biosystems). […] Data Analysis was performed by the StepOne Software (Applied Biosystems) using the Relative Quantitation/Comparative CT (ΔΔCT) setting. […]

Test [4] relates to endoglucanase 2 (eg-2 / gh5-1, NCU00762). Nature of the test: Quantitative RT-PCR of eg-2/gh5-1 expression after 4 h induction with a carbon source. It counts as cell-based, Neurospora crassa. The protocol: as §4, §5, §6
as §1, with “The biomass was flash frozen in liquid nitrogen and stored at −80° C.” left out, “point. […]” for “point.”
as §7

The test system of test [5] is Neurospora crassa. The test is described as follows: Secreted protein concentration in shake flask culture supernatant. It counts as cell-based. The settings on record: Δcre-1; time not stated. The protocol:
Strains were inoculated at an OD595 equal to 0.05 in 100 ml Vogel's salts with 1% (wt/vol) sucrose in a 250 ml Erlenmeyer flask and grown under constant light at 200 rpm for 24 hours. Cultures were then induced with 2% sucrose, 2% cellobiose, 1% sucrose/1% cellobiose, or 1% sucrose/1% Avicel®. Cultures continued to grow under constant light at 200 rpm for 5 days with supernatant collected at 1, 2, 3, 4 and 5 day. The collected supernatant was filtered through a 0.2 μm PES filter to remove biomass before being stored at −20° C. until all samples were collected. To visualize the secreted proteins, 15 μl of unconcentrated supernatant was run on a Criterion 10% Tris-HCL polyacrylamide gel and stained with Thermo Scientific GelCode Blue Stain Reagent.

The mark [6] stands for this setting: WT strain, 2% carbon source, 4 h induction.
Where [7] appears, read: triple β-glucosidase mutant, 2% carbon source, 4 h induction.
The mark [8] stands for this setting: Δcre-1 strain, 4 h induction (Example 1).
The mark [9] stands for this setting: Δcre-1 strain, shifted from sucrose to 0.2% cellobiose for 4 hrs.

Molecules are shown by their SMILES.

As for `O=C[C@H](O)[C@@H](O)[C@H](O[C@@H]1O[C@H](CO)[C@@H](O)[C@H](O)[C@H]1O)[C@H](O)CO` [cellobiose], the “FPKMs of NCU05924 (endoxylanase, gh10-1)” value in test [1] is 10,000 FPKMs. Besides, the “FPKM of NCU07760 (gh61-2)” value in test [2] is recorded as 538 FPKM. Besides, the “induction for cbh-1 compared to relative expression on sucrose” value in test [3] (setting [6]) worked out at 20 fold. Besides, the “cbh-1 increase in relative expression over expression on sucrose” value in test [3] (setting [7]) is reported as 6,500 fold. Moreover, in test [3] (setting [8]), the “increase in transcription of cbh-1 above expression on sucrose in the same strain” value is given as 600 fold. Besides, the “induction of cbh-1” value in test [3] (setting [9]) was 3,000 fold. Besides, the “eg-2 relative expression compared to sucrose” value in test [4] (setting [6]) is given as “no change”. Moreover, the “eg-2 increase in relative expression over expression on sucrose” value in test [4] (setting [7]) is 2,200 fold. Moreover, the “increase in transcription of eg-2 above expression on sucrose in the same strain” value in test [4] (setting [8]) turned out to be 80 fold. The “induction of gh5-1” value in test [4] (setting [9]) was determined as 500 fold. Further, the “cellulase secretion (secreted protein)” value in test [5] was 653 µg/mL.

The record behind these values is US9822373B2, “Mutant cells for protein secretion and lignocellulose degradation” (The Regents of the University of California, priority 2011, dated 2017).
